Like-named read-outs stand apart in the source and are kept apart here.
Tests used:
[1] = test system: Heliothis virescens (Tobacco budworm); assay: Heliothis virescens egg test on artificial diet; type: in vivo; settings: 96 h, read-out: control of Heliothis virescens
Protocol: (§1) This Example illustrates the insecticidal and acaricidal properties of compounds of formula (I). The tests were performed as follows:
(§2) Cotton leaf discs were placed on agar in a 24-well microtiter plate and sprayed with test solutions at an application rate of 200 ppm. After drying, the leaf discs were infested with 5 L1 larvae. The samples were checked for mortality, feeding behavior, and growth regulation 3 days after treatment (DAT). The following compound gave at least 80% control of Spodoptera littoralis: A1, A2, A5, A6, A7, A8, A10, A11, A12, A13, A14, A15, A16, A17, A18, A19, A21, A22, A23, A24, A25, A30, A31, A32, A33, A34, A35, A39, A40, A41 A42, A43, A44, A45, A46, A47, A48, A49, A50, A51, A53, A54, A55, A59, A60, A61, A62. Heliothis virescens (Tobacco budworm): Eggs (0-24 h old) were placed in 24-well microtiter plate on artificial diet and treated with test solutions at an application rate of 200 ppm (concentration in well 18 ppm) by pipetting. After an incubation period of 4 days, samples were checked for egg mortality, larval mortality, and growth regulation. The following compound gave at least 80% control of Heliothis virescens: A1, A2, A3, A4, A5, A6, A7, A8, A10, A11, A12, A13, A14, A15, A16, A18, A19, A21, A22, A24, A25, A30, A31, A32, A33, A34, A35, A37, A38, A39, A40, A42, A43, A44, A45, A46, A47, A48, A49, A50, A51, A55, AA57, A58, A59, A60, A61, A62. Plutella xylostella (Diamond back moth): 24-well microtiter plate (MTP) with artificial diet was treated with test solutions at an application rate of 200 ppm (concentration in well 18 ppm) by pipetting. After drying, the MTP's were infested with L2 larvae (7-12 per well). After an incubation period of 6 days, samples were checked for larval mortality and growth regulation. The following compound gave at least 80% control of Plutella xylostella: A1, A2, A5, A6, A7, A8, A9, A10, A11, A12, A13, A14, A15, A16, A17, A18, A19, A20, A21, A22, A24, A25, A30, A31, A32, A33, A34, A35, A37, A38, A39, A40, A42, A43, A44, A45, A46, A47, A48, A49, A50, A51, A52, A53, A54, A55, A57, A58, A59, A60, A61, A62, B3. Diabrotica balteata (Corn root worm): A 24-well microtiter plate (MTP) with artificial diet was treated with test solutions at an application rate of 200 ppm (concentration in well 18 ppm) by pipetting. After drying, the MTP's were infested with L2 larvae (6-10 per well). After an incubation period of 5 days, samples were checked for larval mortality and growth regulation. The following compound gave at least 80% control of Diabrotica balteata: A1, A2, A5, A6, A7, A10, A11, A12, A13, A14, A15, A16, A17, A18, A19, A21, A22, A24, A25, A30, A31, A32, A33, A34, A35, A38, A39, A40, A42, A43, A44, A45, A46, A47, A48, A49, A50, A59, A60, A61, A62. Thrips tabaci (Onion thrips): Sunflower leaf discs were placed on agar in a 24-well microtiter plate and sprayed with test solutions at an application rate of 200 ppm. After drying, the leaf discs were infested with an […] population of mixed ages. After an incubation period of 7 days, samples were checked for mortality. The following compounds gave at least 80% control of Thrips tabaci: A1, A2, A5, A6, A7, A8, A10, A12, A13, A14, A15, A16, A17, A18, A19, A21, A24, A25, A30, A31, A32, A33, A34, A35, A39, A42, A43, A44, A45, A46, A47, A48, A49, A50, A51, A53, A54, A57, A58, A59, A60, A61, A62. Tetranychus urticae (Two-spotted spider mite): Bean leaf discs on agar in 24-well microtiter plates were sprayed with test solutions at an application rate of 200 ppm. After drying, the leaf discs are infested with mite populations of mixed ages. 8 days later, discs are checked for egg mortality, larval mortality, and adult mortality. The following compound gave at least 80% control of Tetranychus urticae: A1, A2, A4, A5, A6, A7, A8, A10, A11, A12, A13, A14, A15, A16, A17, A18, A19, A20, A21, A22, A30, A31, A32, A33, A34, A35, A39, A40, A41, A42, A43, A44, A45, A46, A47, A48, A49, A50, A51, A53, A54, A55, A57, A59, A60, A61, A62.

[2] = test system: Tetranychus urticae (Two-spotted spider mite); assay: Tetranychus urticae bean leaf disc spray test; type: in vivo; settings: foliar, 192 h, read-out: control of Tetranychus urticae
Protocol: as §1, §2

[3] = test system: Plutella xylostella (Diamond back moth); assay: Plutella xylostella larvae test on artificial diet; type: in vivo; settings: 144 h, 200 ppm (concentration in well 18 ppm), artificial diet, L2 larvae, larval mortality and growth regulation after 6 days
Protocol: as §1, §2

[4] = test system: Diabrotica balteata (Corn root worm); assay: Diabrotica balteata larvae test on artificial diet; type: in vivo; settings: 120 h, 200 ppm (concentration in well 18 ppm), artificial diet, L2 larvae, larval mortality and growth regulation after 5 days
Protocol: as §1, §2

[5] = test system: Spodoptera littoralis (Egyptian cotton leafworm); assay: Spodoptera littoralis cotton leaf disc spray test; type: in vivo; settings: foliar, 72 h, 200 ppm spray on cotton leaf discs, L1 larvae, mortality, feeding behavior, growth regulation 3 days after treatment
Protocol: as §1
Spodoptera littoralis (Egyptian cotton leafworm):
as §2, with “The following compound gave at least 80% control of Tetranychus urticae: A1, A2, A4, A5, A6, A7, A8, A10, A11, A12, A13, A14, A15, A16, A17, A18, A19, A20, A21, A22, A30, A31, A32, A33, A34, A35, A39, A40, A41, A42, A43, A44, A45, A46, A47, A48, A49, A50, A51, A53, A54, A55, A57, A59, A60, A61, A62.” left out

[6] = test system: Thrips tabaci (Onion thrips); assay: Thrips tabaci sunflower leaf disc spray test; type: in vivo; settings: foliar, 168 h, 200 ppm spray on sunflower leaf discs, population of mixed ages, mortality after 7 days
Protocol: as §1, §2

[7] = 200 ppm spray on bean leaf discs, mite populations of mixed ages, egg, larval and adult mortality 8 days later
[8] = 200 ppm (concentration in well 18 ppm), eggs 0-24 h old on artificial diet, egg mortality, larval mortality, growth regulation after 4 days

Work on `Cc1cc(N2CC2(c2cc(Cl)cc(Cl)c2)C(F)(F)F)ccc1C(=O)NC1(C)CSC1` (centres unmarked) [A3] yielded a pest or weed control at 200 ppm [1] of at least 80%.
In the case of `Cc1cc(N2CC2(c2cc(Cl)cc(Cl)c2)C(F)(F)F)ccc1C(=O)NC1CSC1` (centres unmarked) [A4], the pest or weed control at 200 ppm [1] is reported as at least 80% and the pest or weed control at 200 ppm [2] is reported as at least 80%.
`Cc1cc(N2CC(c3cc(Cl)cc(Cl)c3)(C(F)(F)F)OC2=O)ccc1C(=O)NC1(C)CSC1` (centres unmarked) [A9] showed a pest or weed control at 200 ppm [3] of at least 80%.
In the case of `Cc1cc(C2CC(c3cc(Cl)cc(Cl)c3)(C(F)(F)F)ON2C)ccc1C(=O)NC1(C)CSC1` (centres unmarked) [A20], the pest or weed control at 200 ppm [3] is reported as at least 80% and the pest or weed control at 200 ppm [2, 7] is reported as at least 80%.
In the case of `O=C(NC1C[S+]([O-])C1)c1ccc(C2=NOC(c3cc(Cl)cc(Cl)c3)(C(F)(F)F)C2)c2nsnc12` (centres unmarked) [A24], the pest or weed control at 200 ppm [3] is reported as at least 80%.
With `O=C(NC1CSC1)c1ccc(C2=NOC(c3cc(Cl)cc(Cl)c3)(C(F)(F)F)C2)c2nsnc12` (centres unmarked) [A25] the pest or weed control at 200 ppm [3] was at least 80%.
`C/C=C1\C(c2ccc(C(=O)NC3CSC3)c(C)c2)=NOC1(c1cc(Cl)cc(Cl)c1)C(F)(F)F` (centres unmarked) [A30] showed a pest or weed control at 200 ppm [1, 8] of at least 80%, a pest or weed control at 200 ppm [3] of at least 80% and a pest or weed control at 200 ppm [4] of at least 80%.
With `O=C(NC1C[S+]([O-])C1)c1cccc2c(C3=NOC(c4cc(Cl)cc(Cl)c4)(C(F)(F)F)C3)cccc12` (centres unmarked) [A37] the pest or weed control at 200 ppm [1, 8] was at least 80% and the pest or weed control at 200 ppm [3] was at least 80%.
`O=C(NC1CSC1)c1cccc2c(C3=NOC(c4cc(Cl)cc(Cl)c4)(C(F)(F)F)C3)cccc12` (centres unmarked) [A38] gave a pest or weed control at 200 ppm [1, 8] of at least 80%, a pest or weed control at 200 ppm [3] of at least 80% and a pest or weed control at 200 ppm [4] of at least 80%.
`Cc1cc(C2=NOC(c3cc(Cl)cc(Cl)c3)(C(F)(F)F)C2S(C)(=O)=O)ccc1C(=O)NC1CSC1` (centres unmarked) [A41] gave a pest or weed control at 200 ppm [5] of at least 80%.
With `Cc1cc(C2=NOC(c3cc(Cl)cc(Cl)c3)(C(F)(F)F)C2O)ccc1C(=O)NC1(C)CSC1` (centres unmarked) [A52] the pest or weed control at 200 ppm [3] was at least 80%.
For `Cc1cc(C2=NOC(c3cc(Cl)cc(Cl)c3)(C(F)(F)F)/C2=N/O)ccc1C(=O)NC1C[S+]([O-])C1` (centres unmarked) [A57], the pest or weed control at 200 ppm [1, 8] was at least 80%, the pest or weed control at 200 ppm [3] was at least 80% and the pest or weed control at 200 ppm [6] was at least 80%. The pest or weed control at 200 ppm [2, 7] was at least 80%.
`Cc1nn(C2=NOC(c3cc(Cl)cc(Cl)c3)(C(F)(F)F)C2)cc1C(=O)NC1CSC1` (centres unmarked) [B1] gave a melting point of 177 to 180 °C.
Work on `Cc1c(C(=O)NC2CSC2)cnn1C1=NOC(c2cc(Cl)cc(Cl)c2)(C(F)(F)F)C1` (centres unmarked) [B2] yielded a melting point of 77 °C.
With `O=C(NC1CSC1)c1ccn(C2=NOC(c3cc(Cl)cc(Cl)c3)(C(F)(F)F)C2)n1` (centres unmarked) [B3] the pest or weed control at 200 ppm [3] was at least 80%.
`O=C(NC1CSC1)c1cnn(C2=NOC(c3cc(Cl)cc(Cl)c3)(C(F)(F)F)C2)c1` (centres unmarked) [B4] showed a melting point of 85 to 87 °C.

Reference: patent publication US9216973B2, “Insecticidal compounds” (Syngenta Participations AG, priority 2008, dated 2015)
